Legend:
Assay type in all cases: cell-based
Trpv4_v1 = target: T1, Trpv4_v1 (Sparus aurata, UniProt A0A671Y4W2); assay: two-electrode voltage clamp in Xenopus oocytes, constitutive current at -85 mV
T1 construct: gene trpv4; full-length cDNA from testis in pT7Ts; cRNA expressed alone in Xenopus laevis oocytes; calculated monomer 99 kDa
T1 sequence (A0A671Y4W2 1-876): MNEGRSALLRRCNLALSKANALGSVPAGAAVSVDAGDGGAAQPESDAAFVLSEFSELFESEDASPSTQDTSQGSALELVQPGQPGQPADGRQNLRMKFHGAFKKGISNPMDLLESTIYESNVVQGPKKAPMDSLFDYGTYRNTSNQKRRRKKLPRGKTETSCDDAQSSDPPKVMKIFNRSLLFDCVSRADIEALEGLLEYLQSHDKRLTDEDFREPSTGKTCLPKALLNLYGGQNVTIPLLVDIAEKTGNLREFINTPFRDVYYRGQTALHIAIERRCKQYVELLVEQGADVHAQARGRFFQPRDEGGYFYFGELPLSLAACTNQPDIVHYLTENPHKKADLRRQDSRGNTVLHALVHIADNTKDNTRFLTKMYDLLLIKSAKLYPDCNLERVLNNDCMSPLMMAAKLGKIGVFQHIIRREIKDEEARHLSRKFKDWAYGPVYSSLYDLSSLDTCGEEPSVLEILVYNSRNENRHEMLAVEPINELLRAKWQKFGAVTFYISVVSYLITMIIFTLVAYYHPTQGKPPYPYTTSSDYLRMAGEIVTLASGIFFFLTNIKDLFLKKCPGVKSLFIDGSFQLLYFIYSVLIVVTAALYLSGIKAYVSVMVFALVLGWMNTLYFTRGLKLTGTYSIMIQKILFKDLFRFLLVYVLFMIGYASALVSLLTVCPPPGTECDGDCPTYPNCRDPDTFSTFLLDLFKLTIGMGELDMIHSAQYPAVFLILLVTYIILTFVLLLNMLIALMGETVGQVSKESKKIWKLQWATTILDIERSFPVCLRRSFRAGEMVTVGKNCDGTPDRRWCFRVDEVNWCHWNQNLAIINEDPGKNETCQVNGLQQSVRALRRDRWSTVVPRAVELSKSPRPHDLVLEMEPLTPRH

Trpv4_v10 = target: T2, Trpv4_v10 (Sparus aurata, UniProt A0A671Y517); assay: as above
T2 construct: gene trpv4; synthesized full-length splice-variant cDNA in pT7Ts; cRNA expressed alone in Xenopus laevis oocytes; divergent N-terminus
T2 sequence (A0A671Y517 1-877): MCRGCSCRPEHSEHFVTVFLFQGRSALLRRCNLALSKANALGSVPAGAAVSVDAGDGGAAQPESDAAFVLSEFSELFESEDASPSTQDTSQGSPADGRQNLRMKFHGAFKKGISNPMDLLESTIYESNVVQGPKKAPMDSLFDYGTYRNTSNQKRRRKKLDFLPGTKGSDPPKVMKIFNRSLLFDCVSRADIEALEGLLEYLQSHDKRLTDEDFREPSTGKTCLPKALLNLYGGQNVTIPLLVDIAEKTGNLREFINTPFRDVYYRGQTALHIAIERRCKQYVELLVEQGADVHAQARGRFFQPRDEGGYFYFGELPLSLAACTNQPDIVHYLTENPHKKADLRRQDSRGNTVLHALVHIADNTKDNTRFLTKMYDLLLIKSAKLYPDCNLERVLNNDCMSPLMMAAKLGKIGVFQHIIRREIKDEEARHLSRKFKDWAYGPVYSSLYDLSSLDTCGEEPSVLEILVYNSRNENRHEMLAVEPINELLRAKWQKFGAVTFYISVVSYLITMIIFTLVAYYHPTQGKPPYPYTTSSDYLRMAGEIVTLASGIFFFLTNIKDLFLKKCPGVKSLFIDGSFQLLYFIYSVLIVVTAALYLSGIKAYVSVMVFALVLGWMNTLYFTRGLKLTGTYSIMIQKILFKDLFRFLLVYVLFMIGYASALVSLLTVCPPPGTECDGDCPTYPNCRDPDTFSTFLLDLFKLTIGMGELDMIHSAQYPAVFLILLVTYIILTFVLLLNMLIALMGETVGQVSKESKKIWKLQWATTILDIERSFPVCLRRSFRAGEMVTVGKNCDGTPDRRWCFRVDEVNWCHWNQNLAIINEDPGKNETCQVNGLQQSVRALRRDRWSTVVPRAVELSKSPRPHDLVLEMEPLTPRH

Aqp4a-M43 = target: T3, Aqp4a-M43 (Sparus aurata, UniProt A0A678R2D9); assay: oocyte swelling assay (osmotic water permeability Lp); conditions: 5 min pretreatment, hyposmotic challenge -100 mOsm, pH 7.4
T3 construct: gene Aqp4; short isoform starting at Met-43, 31 kDa; cRNA expressed in Xenopus laevis oocytes

[1] = 5 min exposure, isosmotic 220 mOsm, pH 7.4, room temperature

T3 sequence (A0A678R2D9 entry or part of it): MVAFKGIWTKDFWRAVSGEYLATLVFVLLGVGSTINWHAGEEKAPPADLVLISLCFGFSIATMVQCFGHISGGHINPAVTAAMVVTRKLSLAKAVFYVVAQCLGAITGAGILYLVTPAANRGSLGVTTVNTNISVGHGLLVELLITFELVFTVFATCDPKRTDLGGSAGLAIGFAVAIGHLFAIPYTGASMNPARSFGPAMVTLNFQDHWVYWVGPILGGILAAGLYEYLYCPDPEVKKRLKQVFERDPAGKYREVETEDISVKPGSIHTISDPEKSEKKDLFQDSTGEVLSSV

Cc1c(C(=O)Nc2cccc(C(F)(F)F)c2)cc(-c2ccccc2)n1CCCN1CCOCC1 [HC-067047]
inhibition at 10 µM (Trpv4_v1): ~8% | inhibition at 10 µM (Trpv4_v10): ~8%

CC(C)NCCN(C(C)C)S(=O)(=O)c1ccc(Cl)cc1Cl [RN-1734]
inhibition at 100 µM (Trpv4_v1): ~40% | inhibition at 100 µM (Trpv4_v10): ~9%

O=C(Nc1nncs1)c1cccnc1 [TGN-020, 2-(Nicotinamide)-1,3,4-thiadiazole]
% reduction of Lp at 20 μM (Aqp4a-M43): ~ 82%

N.N.N.N.N.N.N.N.N.N.N.N.N.N.[Cl-].[Cl-].[Cl-].[Cl-].[Cl-].[Cl-].[O-2].[O-2].[Ru+3].[Ru+3].[Ru+4] [ruthenium red]
% inhibition at 10 μM (Trpv4_v1; [1]): ~ 28% | % inhibition at 10 μM (Trpv4_v10; [1]): ~ 5%
